# Test results as given in ChEMBL document CHEMBL5518232, “Discovery of New Tricyclic Oxime Sampangine Derivatives as Potent Antifungal Agents for the Treatment of Cryptococcosis and Candidiasis” (J Med Chem, 2024).
# Activity calls are given as the source filed them. The calls are words filed in the database; no cut-off is given here.
# What was measured:
# Candida albicans [1] = assay: Antifungal activity against Candida albicans SC5314 assessed as reduction in fungal growth incubated for 48 hrs by liquid based microdilution method; type: functional
# Candida albicans [2] = assay: Antifungal activity against Candida albicans 0304103 assessed as reduction in fungal growth incubated for 48 hrs by liquid based microdilution method; type: functional
# Candida tropicalis [3] = assay: Antifungal activity against Candida tropicalis 10186 assessed as reduction in fungal growth incubated for 48 hrs by liquid based microdilution method; type: functional
# Nakaseomyces glabratus = assay: Antifungal activity against Candida glabrata 9073 assessed as reduction in fungal growth incubated for 48 hrs by liquid based microdilution method; type: functional
# Cryptococcus neoformans [4] = assay: Antifungal activity against Cryptococcus neoformans H99 assessed as reduction in fungal growth incubated for 72 hrs by liquid based microdilution method; type: functional
# Candida albicans [5] = assay: Synergistic antifungal activity against Candida albicans 0304103 assessed as inhibition of fungal growth incubated for 48 hrs in presence of fluconazole by checkerboard microdilution assay; type: functional
# Candida albicans [6] = assay: Antagonistic antifungal activity against Candida albicans 0304103 assessed as fractional inhibitory concentration index by measuring ratio of MIC80 for compound and synergetic / MIC80 for compound alone + MIC80 for fluconazole synergetic / MIC80 for fluconazole alone; type: functional
# Cryptococcus neoformans [7] = assay: Antifungal activity against Cryptococcus neoformans ATCC 34877 assessed as reduction in fungal growth incubated for 72 hrs by liquid based microdilution method; type: functional
# [8] = Antifungal activity against Cryptococcus gattii VGI ATCC 14116 assessed as reduction in fungal growth incubated for 72 hrs by liquid based microdilution method; type: functional
# Candida albicans [9] = assay: Synergistic antifungal activity against Candida albicans 0304103 assessed as fractional inhibitory concentration index by measuring ratio of MIC80 for compound and synergetic / MIC80 for compound alone + MIC80 for fluconazole synergetic / MIC80 for fluconazole alone; type: functional
# Candida tropicalis [10] = assay: Synergistic antifungal activity against Candida tropicalis 10186 assessed as inhibition of fungal growth incubated for 48 hrs in presence of fluconazole by checkerboard microdilution assay; type: functional, organism-based
# Pichia kudriavzevii = assay: Synergistic antifungal activity against Candida krusei 10153 assessed as inhibition of fungal growth incubated for 48 hrs in presence of fluconazole by checkerboard microdilution assay; type: functional, organism-based
# Candida parapsilosis = assay: Synergistic antifungal activity against Candida parapsilosis 20090 assessed as inhibition of fungal growth incubated for 48 hrs in presence of fluconazole by checkerboard microdilution assay; type: functional, organism-based
# Clavispora lusitaniae = assay: Synergistic antifungal activity against Candida lusitaniae 9150 assessed as inhibition of fungal growth incubated for 48 hrs in presence of fluconazole by checkerboard microdilution assay; type: functional, organism-based
# [Candida] auris = Synergistic antifungal activity against Candida auris 0029 assessed as inhibition of fungal growth incubated for 48 hrs in presence of fluconazole by checkerboard microdilution assay; type: functional, organism-based; conditions: Candidozyma auris
# Cryptococcus neoformans [11] = assay: Antifungal activity against Cryptococcus neoformans H99 assessed as inhibition of fungal growth incubated for 72 hrs by time growth curve assay; type: functional, organism-based; conditions: dose 0.13-2 µg/ml
# Cryptococcus neoformans [12] = assay: Antifungal activity against Cryptococcus neoformans H99 assessed as log reduction in fungal growth at 2 ug/ml incubated for 72 hrs by time growth curve assay (reference value: 7.65 log10CFU/ml); type: functional; conditions: dose 2 µg/ml
# Candida albicans [13] = assay: Antifungal activity against Candida albicans 0304103 assessed as inhibition of fungal growth at 32 ug/ml incubated for 72 hrs by time growth curve assay; type: functional, organism-based; conditions: dose 32.0 µg/ml
# Candida albicans [14] = assay: Antifungal activity against Candida albicans 0304103 assessed as inhibition of fungal growth at 8 ug/ml incubated for 48 hrs in presence of fluconazole by time growth curve assay; type: functional, organism-based; conditions: dose 8.0 µg/ml
# Candida albicans [15] = assay: Antifungal activity against Candida albicans 0304103 assessed as log reduction in fungal growth at 8 ug/ml incubated for 48 hrs by time growth curve assay (reference value: 7.38 log10CFU/ml); type: functional; conditions: dose 8 µg/ml
# Cryptococcus neoformans [16] = assay: Antifungal activity against Cryptococcus neoformans H99 assessed as inhibition of capsule growth at 0.063 to 2 ug/ml measured after 24 hrs by laser confocal microscopy based analysis; type: functional, organism-based; conditions: dose 0.063-2 µg/ml
# Cryptococcus neoformans [17] = assay: Antifungal activity against Cryptococcus neoformans H99 assessed as inhibition of capsule growth 2 ug/ml measured after 24 hrs by laser confocal microscopy based analysis relative to control; type: functional; set-up: scale not given: the % may be the effect or the level left; conditions: dose 2 µg/ml
# Cryptococcus neoformans [18] = assay: Inhibition of biofilm formation in Cryptococcus neoformans H99 at 0.063 ug/ml incubated for 24 hrs by microplate based analysis relative to control; type: functional
# Candida albicans [19] = assay: Inhibition of biofilm formation in Candida albicans 0304103 at 2 ug/ml incubated for 24 hrs by microplate based analysis relative to control; type: functional
# Candida albicans [20] = assay: Inhibition of biofilm formation in Candida albicans 0304103 at 0.125 ug/ml incubated for 24 hrs by microplate based analysis relative to control; type: functional
# Candida albicans [21] = assay: Inhibition of biofilm formation in Candida albicans 0304103 at 2 ug/ml incubated for 24 hrs in presence of fluconazole by microplate based analysis relative to control; type: functional
# Candida albicans [22] = assay: Antifungal activity against Candida albicans 0304103 assessed as inhibition of filamentation at 2 ug/ml incubated for 3 hrs by inverted cell microscope based analysis; type: functional, organism-based; conditions: dose 2.0 µg/ml
# Candida albicans [23] = assay: Antifungal activity against Candida albicans 0304103 assessed as downregulation of TEC1 expression at 8 ug/ml incubated for 24 hrs in presence of fluconazole by RT-PCR analysis; type: functional, organism-based; conditions: dose 8.0 µg/ml
# Candida albicans [24] = assay: Antifungal activity against Candida albicans 0304103 assessed as downregulation of RLM1 expression at 8 ug/ml incubated for 24 hrs in presence of fluconazole by RT-PCR analysis; type: functional, organism-based; conditions: dose 8.0 µg/ml
# Candida albicans [25] = assay: Antifungal activity against Candida albicans 0304103 assessed as downregulation of APH5 expression at 8 ug/ml incubated for 24 hrs in presence of fluconazole by RT-PCR analysis; type: functional, organism-based; conditions: dose 8.0 µg/ml
# Candida albicans [26] = assay: Antifungal activity against Candida albicans 0304103 assessed as downregulation of GCA1 expression at 8 ug/ml incubated for 24 hrs in presence of fluconazole by RT-PCR analysis; type: functional, organism-based; conditions: dose 8.0 µg/ml
# Candida albicans [27] = assay: Antifungal activity against Candida albicans 0304103 assessed as downregulation of GCA2 expression at 8 ug/ml incubated for 24 hrs in presence of fluconazole by RT-PCR analysis; type: functional, organism-based; conditions: dose 8.0 µg/ml
# Candida albicans [28] = assay: Antifungal activity against Candida albicans 0304103 assessed as downregulation of CDR1 expression at 16 ug/ml incubated for 24 hrs in presence of fluconazole by RT-PCR analysis; type: functional, organism-based; conditions: dose 16.0 µg/ml
# Candida albicans [29] = assay: Antifungal activity against Candida albicans 0304103 assessed as downregulation of ERG11 expression at 16 ug/ml incubated for 24 hrs in presence of fluconazole by RT-PCR analysis; type: functional, organism-based; conditions: dose 16.0 µg/ml
# Candida albicans [30] = assay: Antifungal activity against Candida albicans 0304103 assessed as reversal of ERG11 expression by measuring fold change at 16 ug/ml incubated for 24 hrs in presence of fluconazole by RT-PCR analysis (reference value: 8.8); type: functional; conditions: dose 16 µg/ml
# [31] = Effective permeability of the compound across blood brain barrier incubated for 12 hrs by PAMPA assay; type: ADME; conditions: read-out: Peff
# Cryptococcus neoformans [32] = assay: In vivo antifungal activity against Cryptococcus neoformans H99 infected in cryptococcal meningitis ICR mouse model assessed as reduction in fungal burden in brain at 5 mg/kg, ip measured for 5 days (reference value: 8.18 log10CFU/g); type: functional; conditions: time 5 day
# Candida albicans [33] = assay: In vivo antifungal activity against Candida albicans 0304103 infected in […] ICR mouse model assessed as reduction in fungal burden in kidney at 5 mg/kg, ip measured for 5 days (reference value: 7.37 log10CFU/g); type: functional; conditions: time 5 day
# Candida albicans [34] = assay: In vivo antifungal activity against Candida albicans 0304103 infected in […] ICR mouse model assessed as reduction in fungal burden in kidney at 5 mg/kg, ip measured for 5 days in presence of fluconazole (reference value: 7.37 log10CFU/g); type: functional; conditions: time 5 day
# Candida albicans [35] = assay: In vivo antifungal activity against Candida albicans SC5314 infected in […] ICR mouse model assessed as reduction in fungal burden in kidney at 10 mg/kg, ip measured for 5 days; type: functional, organism-based; conditions: time 5.0 day
# Candida albicans [36] = assay: In vivo antifungal activity against Candida albicans SC5314 infected in […] ICR mouse model assessed as reduction in fungal burden in kidney at 10 mg/kg, ip measured for 5 days in presence of fluconazole; type: functional; conditions: time 5 day
# Cryptococcus neoformans [37] = assay: Antifungal activity against Cryptococcus neoformans assessed as reduction in fungal growth incubated for 24 hrs by broth microdilution method; type: functional
# Candida albicans [38] = assay: Antifungal activity against Candida albicans assessed as reduction in fungal growth incubated for 24 hrs by broth microdilution method; type: functional
smiles,measurement,setting,value
CO/N=C1/c2ccsc2/C(=N\OC)c2ccsc21,MIC80,Candida albicans [1],> 64 µg/mL
same,MIC80,Candida albicans [2],> 64 µg/mL
same,MIC80,Candida tropicalis [3],> 64 µg/mL
same,MIC80,Nakaseomyces glabratus,> 64 µg/mL
same,MIC80,Cryptococcus neoformans [4],32 µg/mL
same,MIC80,Candida albicans [5],> 64 µg/mL
same,fractional inhibitory concentration index (FICI),Candida albicans [6],>2
CCO/N=C1/c2ccsc2C(=O)c2c(C)noc21,MIC80,Candida albicans [1],> 64 µg/mL
same,MIC80,Candida albicans [2],> 64 µg/mL
same,MIC80,Candida tropicalis [3],> 64 µg/mL
same,MIC80,Nakaseomyces glabratus,> 64 µg/mL
same,MIC80,Cryptococcus neoformans [4],0.13 µg/mL
same,MIC80,Cryptococcus neoformans [7],2 µg/mL
same,MIC80,[8],4 µg/mL
same,MIC80,Candida albicans [5],2 µg/mL
same,fractional inhibitory concentration index (FICI),Candida albicans [9],0.047
CO/N=C1/c2ccsc2C(=O)c2c(C)noc21,MIC80,Candida albicans [1],> 64 µg/mL
same,MIC80,Candida albicans [2],32 µg/mL
same,MIC80,Candida tropicalis [3],16 µg/mL
same,MIC80,Nakaseomyces glabratus,> 64 µg/mL
same,MIC80,Cryptococcus neoformans [4],0.016 µg/mL
same,MIC80,Cryptococcus neoformans [7],0.13 µg/mL
same,MIC80,[8],4 µg/mL
same,MIC80,Candida albicans [5],2 µg/mL
same,fractional inhibitory concentration index (FICI),Candida albicans [9],0.078
same,Activity,Candida tropicalis [10],inactive
same,Activity,Pichia kudriavzevii,inactive
same,Activity,Candida parapsilosis,inactive
same,Activity,Clavispora lusitaniae,inactive
same,Activity,[Candida] auris,inactive
same,Activity,Cryptococcus neoformans [11],Dose-Dependent Effect
same,Activity,Cryptococcus neoformans [12],6.22 log10CFU/ml
same,Activity,Candida albicans [13],Active
same,Activity,Candida albicans [14],Active
same,Activity,Candida albicans [15],6.13 log10CFU/ml
same,Activity,Cryptococcus neoformans [16],Active
same,Activity,Cryptococcus neoformans [17],100%
same,inhibition at 0.063 µg/mL,Cryptococcus neoformans [18],> 90%
same,inhibition at 2 µg/mL,Candida albicans [19],~30%
same,inhibition at 0.125 µg/mL,Candida albicans [20],40%
same,inhibition at 2 µg/mL,Candida albicans [21],50%
same,Activity,Candida albicans [22],Active
same,Activity,Candida albicans [23],Active
same,Activity,Candida albicans [24],Active
same,Activity,Candida albicans [25],Active
same,Activity,Candida albicans [26],Active
same,Activity,Candida albicans [27],Active
same,Activity,Candida albicans [28],Active
same,Activity,Candida albicans [29],Active
same,fold change (FC),Candida albicans [30],0.8
same,Papp at 12 h,[31],8.34 ×10⁻⁶ cm/s
same,Activity,Cryptococcus neoformans [32],7.96 log10CFU/g
same,Activity,Candida albicans [33],5.73 log10CFU/g
same,Activity,Candida albicans [34],5.31 log10CFU/g
same,Activity,Candida albicans [35],Active
same,Activity,Candida albicans [36],5.02 log10CFU/g
Cc1ccnc2c1C(=O)c1sc([N+](=O)[O-])cc1C2=O,MIC80,Cryptococcus neoformans [37],0.25 µg/mL
same,MIC80,Candida albicans [38],0.5 µg/mL
